Measured values reported in the NIST ThermoML archive (doi:10.1016/j.jct.2015.06.036).

Test: xn = mol fraction of the nth substance listed
Conditions: 101 kPa, Liquid; for viscosity: Falling or rolling sphere viscometry; for speed of sound: Sing-around technique in a fixed-path interferometer; for mass density: Vibrating tube method

CCCCn1cc[n+](C)c1.F[B-](F)(F)F [1-butyl-3-methylimidazolium tetrafluoroborate] + CO
Conditions	mass density [kg/m3]	speed of sound [m/s]	viscosity [mPa·s]
278.15 K, x1 = 0.0501	893	1239	1.07
278.15 K, x1 = 0.0999	954.2	1294	1.7
278.15 K, x1 = 0.1498	999.7	1341	2.36
278.15 K, x1 = 0.2	1035.5	1383	3.35
278.15 K, x1 = 0.2999	1087.2	1447	6.22
278.15 K, x1 = 0.4008	1122.5	1493	11.1
278.15 K, x1 = 0.4995	1147.9	1527	20.6
278.15 K, x1 = 0.5999	1167.9	1552	35.3
278.15 K, x1 = 0.6991	1183.3	1573	60.2
278.15 K, x1 = 0.8006	1196.4	1589	108
278.15 K, x1 = 0.8494	1201.6	1596	143
278.15 K, x1 = 0.9006	1206.9	1603	196
278.15 K, x1 = 0.9501	1211.4	1611	264
278.15 K, x1 = 1	1215.9	1615	361
288.15 K, x1 = 0.0501	884	1209	0.905
288.15 K, x1 = 0.0999	945.5	1266	1.4
288.15 K, x1 = 0.1498	991.2	1315	1.91
288.15 K, x1 = 0.2	1027.2	1356	2.65
288.15 K, x1 = 0.2999	1079.1	1422	4.73
288.15 K, x1 = 0.4008	1114.6	1468	8.1
288.15 K, x1 = 0.4995	1140.2	1502	14.5
288.15 K, x1 = 0.5999	1160.3	1527	23.7
288.15 K, x1 = 0.6991	1175.9	1548	38.2
288.15 K, x1 = 0.8006	1189	1564	64.8
288.15 K, x1 = 0.8494	1194.3	1571	82.5
288.15 K, x1 = 0.9006	1199.6	1578	110
288.15 K, x1 = 0.9501	1204	1586	143
288.15 K, x1 = 1	1208.5	1590	186
298.15 K, x1 = 0.0501	875	1179	0.779
298.15 K, x1 = 0.0999	936.8	1238	1.18
298.15 K, x1 = 0.1498	982.8	1288	1.58
298.15 K, x1 = 0.2	1018.9	1331	2.16
298.15 K, x1 = 0.2999	1071	1397	3.73
298.15 K, x1 = 0.4008	1106.8	1443	6.18
298.15 K, x1 = 0.4995	1132.5	1477	10.7
298.15 K, x1 = 0.5999	1152.8	1503	16.9
298.15 K, x1 = 0.6991	1168.5	1524	25.8
298.15 K, x1 = 0.8006	1181.7	1540	41.5
298.15 K, x1 = 0.8494	1187.1	1547	51.6
298.15 K, x1 = 0.9006	1192.4	1554	66.9
298.15 K, x1 = 0.9501	1196.9	1562	83.8
298.15 K, x1 = 1	1201.3	1565	105
308.15 K, x1 = 0.0501	866	1150	0.679
308.15 K, x1 = 0.0999	928.1	1211	1.01
308.15 K, x1 = 0.1498	974.3	1262	1.33
308.15 K, x1 = 0.2	1010.6	1305	1.8
308.15 K, x1 = 0.2999	1063.1	1372	3.02
308.15 K, x1 = 0.4008	1099	1418	4.88
308.15 K, x1 = 0.4995	1124.9	1454	8.17
308.15 K, x1 = 0.5999	1145.3	1479	12.7
308.15 K, x1 = 0.6991	1161.1	1500	18.5
308.15 K, x1 = 0.8006	1174.5	1517	28.4
308.15 K, x1 = 0.8494	1179.9	1524	34.4
308.15 K, x1 = 0.9006	1185.3	1531	43.3
308.15 K, x1 = 0.9501	1189.8	1538	53.3
308.15 K, x1 = 1	1194.2	1542	64.8
318.15 K, x1 = 0.0501	857	1121	0.6
318.15 K, x1 = 0.0999	919.4	1184	0.873
318.15 K, x1 = 0.1498	965.8	1236	1.14
318.15 K, x1 = 0.2	1002.4	1280	1.52
318.15 K, x1 = 0.2999	1055.1	1348	2.51
318.15 K, x1 = 0.4008	1091.3	1394	3.96
318.15 K, x1 = 0.4995	1117.4	1430	6.45
318.15 K, x1 = 0.5999	1137.9	1456	9.83
318.15 K, x1 = 0.6991	1153.8	1477	13.7
318.15 K, x1 = 0.8006	1167.3	1493	20.4
318.15 K, x1 = 0.8494	1172.7	1501	24.2
318.15 K, x1 = 0.9006	1178.2	1508	30
318.15 K, x1 = 0.9501	1182.7	1515	36
318.15 K, x1 = 1	1187.2	1519	42.7
